Read-outs that look alike come from different tables or passages of the source.
Columns and labels:
Assay in all cases: KINOMEscan competitive binding
JAK1(JH2) = biological target: T1, JAK1(JH2) (Homo sapiens, UniProt P23458)
T1 construct: JAK1(JH2); purchased DiscoverX (KINOMEscan)
Excerpt: (§1) The kinases were expressed as fusions to T7 bacteriophage. This is a sensitive, competitive binding assay where test compounds were used to displace immobilized ATP-site binding probe ligands from kinases of interest. The amount of kinase that remained bound to the immobilized probe ligands on the solid support was quantified. Percentage inhibition data were was plotted on kinome trees using the web-based tool KinMap (http://www.kinhub.org/kinmap) ([60]).

PDGFRα = biological target: T2, PDGFRα (Homo sapiens, UniProt P16234)
T2 construct: purchased DiscoverX (KINOMEscan)
T2 sequence (P16234 24-1089): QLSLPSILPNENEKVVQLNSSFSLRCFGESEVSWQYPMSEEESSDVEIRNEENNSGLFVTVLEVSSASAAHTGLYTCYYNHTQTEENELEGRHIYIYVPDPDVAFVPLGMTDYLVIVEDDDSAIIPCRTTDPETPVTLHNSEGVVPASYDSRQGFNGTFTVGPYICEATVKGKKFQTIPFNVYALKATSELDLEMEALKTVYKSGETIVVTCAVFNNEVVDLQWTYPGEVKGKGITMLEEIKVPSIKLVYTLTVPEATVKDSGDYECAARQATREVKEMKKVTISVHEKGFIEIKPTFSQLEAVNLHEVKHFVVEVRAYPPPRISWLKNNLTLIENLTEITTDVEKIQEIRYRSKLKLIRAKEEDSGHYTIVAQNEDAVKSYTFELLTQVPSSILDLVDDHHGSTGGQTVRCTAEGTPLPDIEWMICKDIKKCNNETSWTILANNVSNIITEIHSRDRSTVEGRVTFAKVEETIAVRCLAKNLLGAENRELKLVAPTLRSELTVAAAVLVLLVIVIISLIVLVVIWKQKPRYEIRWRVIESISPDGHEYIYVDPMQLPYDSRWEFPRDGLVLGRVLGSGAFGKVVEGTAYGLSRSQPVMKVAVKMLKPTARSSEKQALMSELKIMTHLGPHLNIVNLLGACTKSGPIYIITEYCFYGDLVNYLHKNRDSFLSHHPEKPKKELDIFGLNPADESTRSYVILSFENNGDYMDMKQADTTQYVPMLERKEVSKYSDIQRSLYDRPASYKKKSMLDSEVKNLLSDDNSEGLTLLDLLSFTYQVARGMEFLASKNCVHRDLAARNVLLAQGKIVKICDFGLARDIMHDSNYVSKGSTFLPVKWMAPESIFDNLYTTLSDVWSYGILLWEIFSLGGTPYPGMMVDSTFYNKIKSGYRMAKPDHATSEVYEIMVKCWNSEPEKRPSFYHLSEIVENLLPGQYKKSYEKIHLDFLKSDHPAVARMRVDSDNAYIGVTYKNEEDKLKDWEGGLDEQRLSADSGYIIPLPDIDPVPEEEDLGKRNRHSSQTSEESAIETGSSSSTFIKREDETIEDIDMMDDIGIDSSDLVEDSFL
Excerpt: as §1

EGFR = biological target: T3, EGFR (Homo sapiens, UniProt P00533)
T3 construct: purchased DiscoverX (KINOMEscan)
Excerpt: as §1

BIKE = biological target: T4, BIKE (Homo sapiens, UniProt Q9NSY1)
T4 construct: purchased DiscoverX (KINOMEscan)
T4 sequence (Q9NSY1 whole entry): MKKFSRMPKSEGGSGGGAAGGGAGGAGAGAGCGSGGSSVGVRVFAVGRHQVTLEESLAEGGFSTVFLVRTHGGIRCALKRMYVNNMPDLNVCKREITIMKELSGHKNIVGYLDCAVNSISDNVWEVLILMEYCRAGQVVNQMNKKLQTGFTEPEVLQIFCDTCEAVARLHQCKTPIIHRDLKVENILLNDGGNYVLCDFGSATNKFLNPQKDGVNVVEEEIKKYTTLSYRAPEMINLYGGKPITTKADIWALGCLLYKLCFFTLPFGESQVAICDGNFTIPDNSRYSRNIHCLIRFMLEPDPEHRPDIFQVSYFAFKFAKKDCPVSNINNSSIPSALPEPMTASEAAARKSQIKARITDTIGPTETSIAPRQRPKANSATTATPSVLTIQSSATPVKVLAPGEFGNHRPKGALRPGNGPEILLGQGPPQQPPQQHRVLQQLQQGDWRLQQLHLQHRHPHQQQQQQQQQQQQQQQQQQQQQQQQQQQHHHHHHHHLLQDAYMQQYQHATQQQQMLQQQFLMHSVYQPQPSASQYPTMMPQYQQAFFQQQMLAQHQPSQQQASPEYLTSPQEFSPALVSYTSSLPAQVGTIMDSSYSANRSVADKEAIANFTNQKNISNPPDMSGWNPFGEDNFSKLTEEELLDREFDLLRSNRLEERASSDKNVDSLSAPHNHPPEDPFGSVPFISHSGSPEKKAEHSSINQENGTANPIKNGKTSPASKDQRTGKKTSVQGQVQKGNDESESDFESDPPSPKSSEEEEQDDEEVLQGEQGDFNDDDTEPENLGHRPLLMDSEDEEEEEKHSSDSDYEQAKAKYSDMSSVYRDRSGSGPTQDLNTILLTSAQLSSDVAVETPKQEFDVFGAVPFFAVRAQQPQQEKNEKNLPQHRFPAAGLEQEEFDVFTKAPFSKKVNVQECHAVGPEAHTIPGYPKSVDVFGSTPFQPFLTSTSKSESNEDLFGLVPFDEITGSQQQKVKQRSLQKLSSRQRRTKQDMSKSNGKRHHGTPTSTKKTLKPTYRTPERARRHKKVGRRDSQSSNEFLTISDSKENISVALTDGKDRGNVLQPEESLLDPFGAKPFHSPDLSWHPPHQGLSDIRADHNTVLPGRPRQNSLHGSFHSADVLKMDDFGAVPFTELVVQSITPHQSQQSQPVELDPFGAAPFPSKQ
Excerpt: as §1

AXL = biological target: T5, AXL (Homo sapiens, UniProt P30530)
T5 construct: purchased DiscoverX (KINOMEscan)
T5 sequence (P30530 26-894): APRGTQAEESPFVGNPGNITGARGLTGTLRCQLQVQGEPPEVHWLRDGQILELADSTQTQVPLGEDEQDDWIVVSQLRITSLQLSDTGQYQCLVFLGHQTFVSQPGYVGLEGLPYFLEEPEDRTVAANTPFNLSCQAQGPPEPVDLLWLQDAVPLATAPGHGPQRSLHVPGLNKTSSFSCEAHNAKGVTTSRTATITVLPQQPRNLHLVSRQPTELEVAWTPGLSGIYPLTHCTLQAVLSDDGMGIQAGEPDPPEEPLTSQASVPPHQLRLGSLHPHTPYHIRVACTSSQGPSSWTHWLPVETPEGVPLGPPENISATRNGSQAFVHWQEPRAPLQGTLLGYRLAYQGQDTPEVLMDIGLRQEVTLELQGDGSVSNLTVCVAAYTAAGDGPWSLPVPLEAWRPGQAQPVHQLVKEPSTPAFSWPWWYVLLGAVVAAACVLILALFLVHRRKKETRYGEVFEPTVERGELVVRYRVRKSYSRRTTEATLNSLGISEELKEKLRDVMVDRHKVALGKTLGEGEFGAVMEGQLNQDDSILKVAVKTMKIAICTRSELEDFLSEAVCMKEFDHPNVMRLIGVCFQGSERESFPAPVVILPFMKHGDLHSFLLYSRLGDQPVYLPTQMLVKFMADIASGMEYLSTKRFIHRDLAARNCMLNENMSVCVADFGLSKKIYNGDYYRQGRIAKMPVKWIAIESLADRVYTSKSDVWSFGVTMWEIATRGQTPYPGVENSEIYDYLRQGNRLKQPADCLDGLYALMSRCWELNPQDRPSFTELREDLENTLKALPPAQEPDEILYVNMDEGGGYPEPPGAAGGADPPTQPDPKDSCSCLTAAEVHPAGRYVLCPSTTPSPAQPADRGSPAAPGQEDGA
Excerpt: as §1

CDK2 = biological target: T6, CDK2 (Homo sapiens, UniProt P24941)
T6 construct: purchased DiscoverX (KINOMEscan)
Excerpt: as §1

TTK = biological target: T7, TTK (Homo sapiens, UniProt P33981)
T7 construct: purchased DiscoverX (KINOMEscan)
T7 sequence (P33981 1-857): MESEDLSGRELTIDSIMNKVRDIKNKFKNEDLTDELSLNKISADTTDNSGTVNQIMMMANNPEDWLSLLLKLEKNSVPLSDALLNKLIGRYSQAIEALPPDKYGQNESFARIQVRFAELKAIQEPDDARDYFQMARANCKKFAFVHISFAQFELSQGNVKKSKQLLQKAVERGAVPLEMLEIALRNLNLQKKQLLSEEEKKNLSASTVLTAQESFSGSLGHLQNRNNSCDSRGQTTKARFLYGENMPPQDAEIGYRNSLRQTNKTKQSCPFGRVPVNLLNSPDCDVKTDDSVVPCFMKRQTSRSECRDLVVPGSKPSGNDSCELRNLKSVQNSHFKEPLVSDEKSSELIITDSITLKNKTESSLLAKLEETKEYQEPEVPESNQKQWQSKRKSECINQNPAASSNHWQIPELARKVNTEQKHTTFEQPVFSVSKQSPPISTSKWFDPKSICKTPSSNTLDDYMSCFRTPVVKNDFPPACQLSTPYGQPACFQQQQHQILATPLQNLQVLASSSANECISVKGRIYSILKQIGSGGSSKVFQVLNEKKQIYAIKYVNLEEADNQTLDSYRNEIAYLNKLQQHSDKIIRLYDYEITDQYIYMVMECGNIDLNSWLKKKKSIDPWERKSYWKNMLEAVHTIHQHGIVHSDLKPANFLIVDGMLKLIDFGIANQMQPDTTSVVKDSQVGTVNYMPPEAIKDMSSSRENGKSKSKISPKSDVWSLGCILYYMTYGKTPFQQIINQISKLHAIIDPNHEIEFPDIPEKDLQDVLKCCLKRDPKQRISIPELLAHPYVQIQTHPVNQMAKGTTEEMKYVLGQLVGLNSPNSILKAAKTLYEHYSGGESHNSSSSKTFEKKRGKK
Excerpt: as §1

CDK5 = biological target: T8, CDK5 (Homo sapiens, UniProt Q00535)
T8 construct: purchased DiscoverX (KINOMEscan)
Excerpt: as §1

PLK1 = biological target: T9, PLK1 (Homo sapiens, UniProt P53350); details: n=1, read-out: Percent inhibition, PLK1
T9 construct: purchased DiscoverX (KINOMEscan)
T9 sequence (P53350 whole entry): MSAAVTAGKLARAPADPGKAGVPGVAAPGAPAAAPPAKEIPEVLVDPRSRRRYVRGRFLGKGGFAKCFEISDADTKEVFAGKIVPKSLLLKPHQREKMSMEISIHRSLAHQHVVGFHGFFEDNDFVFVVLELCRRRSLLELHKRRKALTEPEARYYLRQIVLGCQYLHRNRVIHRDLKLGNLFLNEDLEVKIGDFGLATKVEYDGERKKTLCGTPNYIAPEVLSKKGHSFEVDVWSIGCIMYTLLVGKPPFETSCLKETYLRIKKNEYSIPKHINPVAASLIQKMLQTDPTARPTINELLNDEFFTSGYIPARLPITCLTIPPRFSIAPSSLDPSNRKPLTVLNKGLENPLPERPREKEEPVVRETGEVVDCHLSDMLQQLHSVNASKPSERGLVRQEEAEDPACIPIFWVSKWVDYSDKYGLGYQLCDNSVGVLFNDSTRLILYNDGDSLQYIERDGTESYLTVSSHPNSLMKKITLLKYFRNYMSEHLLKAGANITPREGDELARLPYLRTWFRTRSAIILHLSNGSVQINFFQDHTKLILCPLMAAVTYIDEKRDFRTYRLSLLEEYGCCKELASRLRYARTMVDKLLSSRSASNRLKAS
Excerpt: as §1

CSNK1G1 = biological target: T10, CSNK1G1 (Homo sapiens, UniProt Q9HCP0)
T10 construct: purchased DiscoverX (KINOMEscan)
T10 sequence (Q9HCP0 whole entry): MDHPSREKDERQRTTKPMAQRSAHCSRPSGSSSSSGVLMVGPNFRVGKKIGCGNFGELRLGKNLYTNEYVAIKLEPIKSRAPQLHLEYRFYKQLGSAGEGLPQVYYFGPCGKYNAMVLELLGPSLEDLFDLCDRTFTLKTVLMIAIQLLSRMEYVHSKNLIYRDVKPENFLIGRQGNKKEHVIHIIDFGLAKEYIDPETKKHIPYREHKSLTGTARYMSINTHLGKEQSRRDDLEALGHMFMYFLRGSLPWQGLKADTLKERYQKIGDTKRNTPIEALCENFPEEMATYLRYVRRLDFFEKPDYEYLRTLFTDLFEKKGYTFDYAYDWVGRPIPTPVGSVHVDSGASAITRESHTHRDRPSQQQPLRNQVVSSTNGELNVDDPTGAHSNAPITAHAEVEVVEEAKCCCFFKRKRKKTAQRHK
Excerpt: as §1

CSNK1E = biological target: T11, CSNK1E (Homo sapiens, UniProt P49674)
T11 construct: purchased DiscoverX (KINOMEscan)
T11 sequence (P49674 whole entry): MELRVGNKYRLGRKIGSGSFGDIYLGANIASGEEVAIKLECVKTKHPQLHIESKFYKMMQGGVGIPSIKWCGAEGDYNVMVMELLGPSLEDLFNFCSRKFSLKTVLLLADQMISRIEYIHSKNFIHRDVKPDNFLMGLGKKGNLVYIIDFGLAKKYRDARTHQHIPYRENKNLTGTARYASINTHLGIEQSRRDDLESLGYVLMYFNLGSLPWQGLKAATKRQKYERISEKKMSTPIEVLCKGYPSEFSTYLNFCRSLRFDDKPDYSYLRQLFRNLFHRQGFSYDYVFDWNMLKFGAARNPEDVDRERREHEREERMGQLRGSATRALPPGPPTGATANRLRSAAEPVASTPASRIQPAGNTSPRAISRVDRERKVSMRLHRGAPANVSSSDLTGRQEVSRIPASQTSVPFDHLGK
Excerpt: as §1

AAK1 = biological target: T12, AAK1 (Homo sapiens, UniProt Q2M2I8)
T12 construct: purchased DiscoverX (KINOMEscan)
T12 sequence (Q2M2I8 whole entry): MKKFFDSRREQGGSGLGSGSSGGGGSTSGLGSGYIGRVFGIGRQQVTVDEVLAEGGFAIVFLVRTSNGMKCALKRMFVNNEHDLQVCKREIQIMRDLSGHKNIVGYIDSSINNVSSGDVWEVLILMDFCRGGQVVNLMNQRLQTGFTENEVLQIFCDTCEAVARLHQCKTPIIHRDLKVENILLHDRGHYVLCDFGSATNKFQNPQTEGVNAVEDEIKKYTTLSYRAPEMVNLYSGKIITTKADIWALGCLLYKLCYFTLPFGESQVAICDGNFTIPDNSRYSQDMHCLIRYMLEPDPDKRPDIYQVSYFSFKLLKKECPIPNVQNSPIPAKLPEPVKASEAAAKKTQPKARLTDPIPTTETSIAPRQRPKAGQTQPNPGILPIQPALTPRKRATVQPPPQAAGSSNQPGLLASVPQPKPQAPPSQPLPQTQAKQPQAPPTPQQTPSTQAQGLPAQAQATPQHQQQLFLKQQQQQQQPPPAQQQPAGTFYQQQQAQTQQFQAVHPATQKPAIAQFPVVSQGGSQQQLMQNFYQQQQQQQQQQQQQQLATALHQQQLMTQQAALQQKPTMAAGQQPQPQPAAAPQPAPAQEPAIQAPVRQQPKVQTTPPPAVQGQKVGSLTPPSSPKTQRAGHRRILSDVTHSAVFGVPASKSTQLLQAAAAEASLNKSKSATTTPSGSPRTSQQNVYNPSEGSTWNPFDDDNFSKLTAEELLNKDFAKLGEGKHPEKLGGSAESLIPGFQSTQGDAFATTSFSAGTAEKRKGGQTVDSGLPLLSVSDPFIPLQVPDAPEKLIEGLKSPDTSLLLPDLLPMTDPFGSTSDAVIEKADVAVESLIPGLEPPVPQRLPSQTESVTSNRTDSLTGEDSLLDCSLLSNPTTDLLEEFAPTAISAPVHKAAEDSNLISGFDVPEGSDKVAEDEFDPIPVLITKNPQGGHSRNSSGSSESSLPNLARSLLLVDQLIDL
Excerpt: as §1

[1] = 10 µM, n=1, kinase JAK1(Kin.Dom.1), read-out: Percent inhibition JAK1(Kin.Dom.1)
[2] = KINOMEscan, 10 µM, n=1, read-out: Percent inhibition, PDGFRA
[3] = 10 µM, n=1, kinase EGFR, read-out: Percent inhibition EGFR
[4] = 10 µM, n=1, kinase BIKE, read-out: Percent inhibition BIKE
[5] = 10 µM, n=1, kinase AXL, read-out: Percent inhibition AXL
[6] = 10 μM, n = 1, read-out: percent inhibition CDK2
[7] = 10 µM, n=1, kinase CDK2, read-out: Percent inhibition CDK2
[8] = KINOMEscan, 10 µM, n=1, read-out: Percent inhibition, TTK
[9] = 10 μM, n = 1, read-out: percent inhibition CDK5
[10] = 10 µM, n=1, kinase CDK5, read-out: Percent inhibition CDK5
[11] = 10 µM, n=1, kinase CSNK1G1, read-out: Percent inhibition CSNK1G1
[12] = 10 µM, n=1, kinase CSNK1E, read-out: Percent inhibition CSNK1E
[13] = 10 µM, n=1, kinase AAK1, read-out: Percent inhibition AAK1
[14] = 10 μM, n = 1, read-out: percent inhibition PDGFRα

T1 sequence (P23458 583-855 limits assumed): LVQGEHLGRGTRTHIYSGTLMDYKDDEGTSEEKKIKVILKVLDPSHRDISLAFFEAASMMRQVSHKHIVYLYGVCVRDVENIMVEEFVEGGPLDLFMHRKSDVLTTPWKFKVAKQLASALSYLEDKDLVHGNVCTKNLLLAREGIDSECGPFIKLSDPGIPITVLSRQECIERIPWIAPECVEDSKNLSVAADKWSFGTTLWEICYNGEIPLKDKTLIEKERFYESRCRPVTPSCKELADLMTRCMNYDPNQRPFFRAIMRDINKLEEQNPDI

Structure (SMILES)	inhibition at 10 µM (JAK1(JH2); [1]) [%]	inhibition at 10 µM (PDGFRα; [2]) [%]	inhibition at 10 µM (EGFR; [3]) [%]	inhibition at 10 µM (BIKE; [4]) [%]	inhibition at 10 µM (AXL; [5]) [%]	inhibition at 10 µM (CDK2; [7]) [%]	inhibition at 10 µM (TTK; [8]) [%]	inhibition at 10 µM (CDK5; [10]) [%]	inhibition at 10 µM (PLK1) [%]	inhibition at 10 µM (CSNK1G1; [11]) [%]	inhibition at 10 µM (CSNK1E; [12]) [%]	inhibition at 10 µM (AAK1; [13]) [%]	further results
CN1CCN(c2ccc(Nc3nccc(-c4cnn5ncccc45)n3)cc2C#N)CC1 [Compound 1]	100	100	0	99.1	100	99.5	99.9	99.5	0	100	100	99.9	inhibition at 10 µM (CDK2; [6]): > 99%; inhibition at 10 µM (CDK5; [9]): > 99%
COc1ccc(Nc2nccc(-c3cnn4ncccc34)n2)cc1 [Compound 2]	95.5	99.9	0	96.5	77.8	99.9	100	99.8	97.2	75.9	100	99.7	inhibition at 10 µM (CDK2; [6]): > 99%; inhibition at 10 µM (CDK5; [9]): > 99%
Cc1ccc(O)cc1Nc1ccnc(Nc2cccc(C(N)=O)c2)n1 [Compound 3]	0	99.2	99	0	0	0	98.7	0	0	82.5	100	0	
Cc1ccc(O)cc1N(C)c1ccnc(Nc2cccc(S(N)(=O)=O)c2)n1 [Compound 4]	0	100	95.8	0	0	0	91.8	0	0	0	100	0	
Fc1cccc(COc2ccc(Nc3ncnc4c3CN(CCN3CCOCC3)CC4)cc2Cl)c1 [Compound 6]	0	0	99.9	0	0	0	0	0	0	0	0	0	inhibition at 10 µM (EGFR; 10 μM, n = 1, read-out: percent inhibition EGFR): > 99%
COc1cc(Nc2nccc(-c3sc(N)nc3-c3cccc(NC(=O)c4c(F)cccc4F)c3)n2)cc(OC)c1OC [Compound 7]	0	100	100	0	99	0	99.2	0	0	0	99.9	92.8	
C[C@@H](Oc1cc(-c2cnc3ccccn23)sc1C(N)=O)c1ccccc1Cl [Compound 8]	87.8	0	0	99.4	89	0	69.8	0		0	71.7	97.5	
c1ccc(COc2cccc(-c3ccnc4[nH]ccc34)c2)cc1 [Compound 9]	0	0	0	94.9	93.8	0	0	0	0	0	0	95.1	inhibition at 10 µM (BIKE; 10 μM, n = 1, read-out: percent inhibition BIKE): ≥ 90%; inhibition at 10 µM (AXL; 10 μM, n = 1, read-out: percent inhibition AXL): ≥ 90%; inhibition at 10 µM (AAK1; 10 μM, n = 1, read-out: percent inhibition AAK1): ≥ 90%
Clc1ccc(Nc2ncc(-c3ccccc3)s2)cc1 [Compound 10]	0	98.9	0	0	0	0	0	0	0	0	0	0	inhibition at 10 µM (PDGFRα; [14]): > 90%
Nc1ncc2c(-c3ccncc3)c[nH]c2n1 [Compound 11]	99	100	0	0	0	0	99.5	0	0	99.3	100	79.4	inhibition at 10 µM (JAK1(JH2); 10 μM, n = 1, read-out: percent inhibition JAK1(JH2)): ≥ 99%; inhibition at 10 µM (PDGFRα; [14]): ≥ 99%; inhibition at 10 µM (TTK; 10 μM, n = 1, read-out: percent inhibition TTK): ≥ 99%; inhibition at 10 µM (CSNK1G1; 10 μM, n = 1, read-out: percent inhibition CSNK1G1): ≥ 99%; inhibition at 10 µM (CSNK1E; 10 μM, n = 1, read-out: percent inhibition CSNK1E): ≥ 99%

Reference: PMC9927415, “Tyrosine Kinase Inhibitors Display Potent Activity against Cryptosporidium parvum” (Microbiology Spectrum, 2022)
